Results reported in patent US20250127801A1, “BRIDGED TRICYCLIC CARBAMOYLPYRIDONE COMPOUNDS AND USES THEREOF” (priority 2023, published 2025).
≈ marks a conversion by molar mass, not a printed value.

What was measured:
HIV-1 (IIIB) = assay: microbe, parasite or virus in culture; format: cell-based; conditions: Human immunodeficiency virus 1, MT4, 120 h; HIV-1 (IIIB) replication in MT-4 cells, 5 days incubation, Cell Titer Glo; read-out: MT4 EC50
in vitro = conditions: human, uninfected MT-4 cells
physchem = conditions: FaSSIF, 23 °C, thermodynamic from solid
in vivo = conditions: male, beagle, dog, po, 175 mg

SMILES	EC50 (HIV-1 (IIIB)) [nM]	solubility thermodynamic at 24 h (physchem) [µg/mL]	CC50 at 5 days (in vitro) [nM]	bioavailability (in vivo) [%]
CCCCCCCCCCCCCC(=O)Nc1ccc(CC(=O)Oc2c3n(cc(C(=O)NCc4ccc(F)cc4F)c2=O)[C@@H]2CN(C3=O)[C@@H](C)CC[C@]23CC(OC)=NO3)cc1 [Compound 93, (3′S,5S,7′R)-10′-((2,4-difluorobenzyl)carbamoyl)-3-methoxy-3′-methyl-1′,11′-dioxo-1′,4′,5′,11′-tetrahydro-3′H,4H,7′H-spiro[isoxazole-5,6′-[2,7]methanopyrido[1,2-a][1,4]diazonin]-12′-yl 2-(4-tetradecanamidophenyl)acetate]	1.36	6 (≈ 7.09 µM)	≥ 50000	–
CCCCCCCCCCCCCC(=O)Oc1ccc(C(=O)Oc2c3n(cc(C(=O)NCc4ccc(F)cc4F)c2=O)[C@@H]2CN(C3=O)[C@@H](C)CC[C@]23CC(OC)=NO3)cc1 [Compound 99, (3′S,5S,7′R)-10′-((2,4-difluorobenzyl)carbamoyl)-3-methoxy-3′-methyl-1′,11′-dioxo-1′,4′,5′,11′-tetrahydro-3′H,4H,7′H-spiro[isoxazole-5,6′-[2,7]methanopyrido[1,2-a][1,4]diazonin]-12′-yl 4-(tetradecanoyloxy)benzoate]	3.03	13 (≈ 15.6 µM)	≥ 50000	–
CC1=NO[C@@]2(CC[C@H](C)N3C[C@H]2n2cc(C(=O)NCc4ccc(F)cc4F)c(=O)c(O)c2C3=O)C1 [Intermediate B, (3′S,5S,7′R)—N-(2,4-difluorobenzyl)-12′-hydroxy-3,3′-dimethyl-1′,11′-dioxo-1′,4′,5′,11′-tetrahydro-3′H,4H,7′H-spiro[isoxazole-5,6′-[2,7]methanopyrido[1,2-a][1,4]diazonine]-10′-carboxamide]	–	–	–	15.6
COC1=NO[C@@]2(CC[C@H](C)N3C[C@H]2n2cc(C(=O)NCc4ccc(F)cc4F)c(=O)c(O)c2C3=O)C1 [Intermediate C, (3′S,5S,7′R)—N-(2,4-difluorobenzyl)-12′-hydroxy-3-methoxy-3′-methyl-1′,11′-dioxo-1′,4′,5′,11′-tetrahydro-3′H,4H,7′H-spiro[isoxazole-5,6′-[2,7]methanopyrido[1,2-a][1,4]diazonine]-10′-carboxamide]	–	–	–	14.5

The next lines start with results.

EC50 (HIV-1 (IIIB)) [nM]	solubility thermodynamic at 24 h (physchem) [µg/mL]	SMILES	CC50 at 5 days (in vitro) [nM]	bioavailability (in vivo) [%]
3.2	19 (≈ 22.9 µM)	CCCCCCCCCCCCCC(=O)Nc1ccc(CC(=O)Oc2c3n(cc(C(=O)NCc4ccc(F)cc4F)c2=O)[C@@H]2CN(C3=O)[C@@H](C)CC[C@]23CC(C)=NO3)cc1 [Compound 94, (3′S,5S,7′R)-10′-((2,4-difluorobenzyl)carbamoyl)-3,3′-dimethyl-1′,11′-dioxo-1′,4′,5′,11′-tetrahydro-3′H,4H,7′H-spiro[isoxazole-5,6′-[2,7]methanopyrido[1,2-a][1,4]diazonin]-12′-yl 2-(4-tetradecanamidophenyl)acetate]	≥ 50000	–
2.26	13.5 (≈ 16.2 µM)	CCCCCCCCCCCCCC(=O)Oc1ccc(CC(=O)Oc2c3n(cc(C(=O)NCc4ccc(F)cc4F)c2=O)[C@@H]2CN(C3=O)[C@@H](C)CC[C@]23CC(C)=NO3)cc1 [Compound 96, [4-[2-[(1R,10S,13S)-4-[(2,4-difluorophenyl)methylcarbamoyl]-3′,10-dimethyl-5,8-dioxo-spiro[2,9-diazatricyclo[7.4.1.02,7]tetradeca-3,6-diene-13,5′-4H-isoxazole]-6-yl]oxy-2-oxo-ethyl]phenyl] tetradecanoate]	≥ 50000	–
2.94	64.5 (≈ 79 µM)	CCCCCCCCCCCCCC(=O)Oc1ccc(C(=O)Oc2c3n(cc(C(=O)NCc4ccc(F)cc4F)c2=O)[C@@H]2CN(C3=O)[C@@H](C)CC[C@]23CC(C)=NO3)cc1 [Compound 100, (3′S,5S,7′R)-10′-((2,4-difluorobenzyl)carbamoyl)-3,3′-dimethyl-1′,11′-dioxo-1′,4′,5′,11′-tetrahydro-3′H,4H,7′H-spiro[isoxazole-5,6′-[2,7]methanopyrido[1,2-a][1,4]diazonin]-12′-yl 4-(tetradecanoyloxy)benzoate]	12800	–
